Measured values as given in PubChem BioAssay (NCI).
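At the GI50, growth is halved. TGI: concentration producing complete growth inhibition.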

Key:
Test in all cases: NCI-60 cell line screen, 384-well format
OVCAR-4 ovarian = system: OVCAR-4 ovarian
DU-145 prostate = system: DU-145 prostate
SR leukemia = system: SR leukemia
NCI-H226 lung = system: NCI-H226 lung
LOX IMVI melanoma = system: LOX IMVI melanoma
COLO 205 colon = system: COLO 205 colon
BT-549 breast = system: BT-549 breast
HCT-116 colon = system: HCT-116 colon
UO-31 renal = system: UO-31 renal
NCI-H522 lung = system: NCI-H522 lung
MDA-MB-231 breast = system: MDA-MB-231 breast
U251 glioblastoma = system: U251 glioblastoma
SN12C renal = system: SN12C renal
HT29 colon = system: HT29 colon
K-562 leukemia = system: K-562 leukemia
HOP-92 NSCLC = system: HOP-92 NSCLC
PC-3 prostate = system: PC-3 prostate
SK-MEL-2 melanoma = system: SK-MEL-2 melanoma
HS 578T breast = system: HS 578T breast
SK-OV-3 ovarian = system: SK-OV-3 ovarian
SF-539 CNS = system: SF-539 CNS
A549 NSCLC = system: A549 NSCLC
OVCAR-8 ovarian = system: OVCAR-8 ovarian
IGROV1 ovarian = system: IGROV1 ovarian
SNB-75 CNS = system: SNB-75 CNS
MCF7 breast = system: MCF7 breast
HCC-2998 colon = system: HCC-2998 colon
MDA-MB-435 melanoma = system: MDA-MB-435 melanoma
EKVX NSCLC = system: EKVX NSCLC
CAKI-1 renal = system: CAKI-1 renal
RPMI-8226 leukemia = system: RPMI-8226 leukemia
MOLT-4 leukemia = system: MOLT-4 leukemia
MDA-MB-468 breast = system: MDA-MB-468 breast
SK-MEL-28 melanoma = system: SK-MEL-28 melanoma
KM12 colon = system: KM12 colon
NCI/ADR-RES ovarian = system: NCI/ADR-RES ovarian
NCI-H460 NSCLC = system: NCI-H460 NSCLC
MALME-3M melanoma = system: MALME-3M melanoma
SW-620 colon = system: SW-620 colon
RXF 393 renal = system: RXF 393 renal
SF-268 CNS = system: SF-268 CNS
TK-10 renal = system: TK-10 renal
OVCAR-3 ovarian = system: OVCAR-3 ovarian
UACC-257 melanoma = system: UACC-257 melanoma
786-0 renal = system: 786-0 renal
NCI-H23 lung = system: NCI-H23 lung
CCRF-CEM leukemia = system: CCRF-CEM leukemia

Cc1c(Br)c(Br)c2c3c1nc(N1CCNCC1)n3CCC2
GI50 (OVCAR-4 ovarian): 1.77 µM | TGI (OVCAR-4 ovarian): 3.51 µM | GI50 (DU-145 prostate): 1.67 µM | TGI (DU-145 prostate): 3.12 µM | GI50 (SR leukemia): 1.03 µM | TGI (SR leukemia): 2.24 µM | GI50 (NCI-H226 lung): 1.2 µM | TGI (NCI-H226 lung): 2.62 µM | GI50 (LOX IMVI melanoma): 1.49 µM | TGI (LOX IMVI melanoma): 2.84 µM | GI50 (COLO 205 colon): 1.8 µM | TGI (COLO 205 colon): 3.21 µM | GI50 (BT-549 breast): 1.35 µM | TGI (BT-549 breast): 2.64 µM | GI50 (HCT-116 colon): 1.37 µM | TGI (HCT-116 colon): 2.7 µM | GI50 (UO-31 renal): 1.45 µM | TGI (UO-31 renal): 2.78 µM | GI50 (NCI-H522 lung): 0.347 µM | TGI (NCI-H522 lung): 1.8 µM | GI50 (MDA-MB-231 breast): 1.6 µM | TGI (MDA-MB-231 breast): 3.24 µM | GI50 (U251 glioblastoma): 1.66 µM | TGI (U251 glioblastoma): 3.04 µM | GI50 (SN12C renal): 1.64 µM | TGI (SN12C renal): 3.02 µM | GI50 (HT29 colon): 1.62 µM | TGI (HT29 colon): 3.06 µM | GI50 (K-562 leukemia): 1.52 µM | TGI (K-562 leukemia): 2.89 µM | GI50 (HOP-92 NSCLC): 1.75 µM | TGI (HOP-92 NSCLC): 3.3 µM | GI50 (PC-3 prostate): 1.32 µM | TGI (PC-3 prostate): 2.67 µM | GI50 (SK-MEL-2 melanoma): 1.38 µM | TGI (SK-MEL-2 melanoma): 2.68 µM | GI50 (HS 578T breast): 1.87 µM | TGI (HS 578T breast): 3.28 µM | GI50 (SK-OV-3 ovarian): 1.36 µM | TGI (SK-OV-3 ovarian): 2.74 µM | GI50 (SF-539 CNS): 1.64 µM | TGI (SF-539 CNS): 3.01 µM | GI50 (A549 NSCLC): 1.75 µM | TGI (A549 NSCLC): 3.35 µM | GI50 (OVCAR-8 ovarian): 1.47 µM | TGI (OVCAR-8 ovarian): 2.85 µM | GI50 (IGROV1 ovarian): 1.31 µM | TGI (IGROV1 ovarian): 2.61 µM | GI50 (SNB-75 CNS): 1.97 µM | TGI (SNB-75 CNS): 3.4 µM | GI50 (MCF7 breast): 1.17 µM | TGI (MCF7 breast): 2.42 µM | GI50 (HCC-2998 colon): 0.976 µM | TGI (HCC-2998 colon): 2.23 µM | GI50 (MDA-MB-435 melanoma): 1.85 µM | TGI (MDA-MB-435 melanoma): 3.27 µM | GI50 (EKVX NSCLC): 1.57 µM | TGI (EKVX NSCLC): 2.95 µM | GI50 (CAKI-1 renal): 1.59 µM | TGI (CAKI-1 renal): 2.99 µM | GI50 (RPMI-8226 leukemia): 0.81 µM | TGI (RPMI-8226 leukemia): 2.27 µM | GI50 (MOLT-4 leukemia): 1.23 µM | TGI (MOLT-4 leukemia): 2.48 µM | GI50 (MDA-MB-468 breast): 1.15 µM | TGI (MDA-MB-468 breast): 2.37 µM | GI50 (SK-MEL-28 melanoma): 1.59 µM | TGI (SK-MEL-28 melanoma): 2.95 µM | GI50 (KM12 colon): 1.41 µM | TGI (KM12 colon): 2.73 µM | GI50 (NCI/ADR-RES ovarian): 1.68 µM | TGI (NCI/ADR-RES ovarian): 3.27 µM | GI50 (NCI-H460 NSCLC): 1.39 µM | TGI (NCI-H460 NSCLC): 2.73 µM | GI50 (MALME-3M melanoma): 1.42 µM | TGI (MALME-3M melanoma): 2.73 µM | GI50 (SW-620 colon): 1.25 µM | TGI (SW-620 colon): 2.51 µM | GI50 (RXF 393 renal): 1.39 µM | TGI (RXF 393 renal): 2.68 µM | GI50 (SF-268 CNS): 1.33 µM | TGI (SF-268 CNS): 2.65 µM | GI50 (TK-10 renal): 1.51 µM | TGI (TK-10 renal): 2.88 µM | GI50 (OVCAR-3 ovarian): 1.42 µM | TGI (OVCAR-3 ovarian): 2.74 µM | GI50 (UACC-257 melanoma): 1.62 µM | TGI (UACC-257 melanoma): 2.99 µM | GI50 ([…]-0 renal): 1.55 µM | TGI (786-0 renal): 2.9 µM | GI50 (NCI-H23 lung): 1.66 µM | TGI (NCI-H23 lung): 3.09 µM | GI50 (CCRF-CEM leukemia): 0.885 µM | TGI (CCRF-CEM leukemia): 2.17 µM

CN1C(=O)[C@@H](CC2CCCC2)N(C2CCCC2)c2nc(Nc3cc(Cl)c(O)c(Cl)c3)ncc21
GI50 (OVCAR-4 ovarian): 5.33 µM | TGI (OVCAR-4 ovarian): 37.1 µM | GI50 (DU-145 prostate): 6.56 µM | TGI (DU-145 prostate): 64.7 µM | GI50 (SR leukemia): 2.87 µM | TGI (SR leukemia): 8.95 µM | GI50 (NCI-H226 lung): 11.5 µM | TGI (NCI-H226 lung): 31.7 µM | GI50 (LOX IMVI melanoma): 6.14 µM | TGI (LOX IMVI melanoma): 19.5 µM | GI50 (COLO 205 colon): 27.8 µM | TGI (COLO 205 colon): 81.8 µM | GI50 (BT-549 breast): 4.02 µM | TGI (BT-549 breast): 17.5 µM | GI50 (HCT-116 colon): 3.9 µM | TGI (HCT-116 colon): 13.7 µM | GI50 (UO-31 renal): 4.75 µM | TGI (UO-31 renal): 23.2 µM | GI50 (NCI-H522 lung): 2.6 µM | TGI (NCI-H522 lung): 8.91 µM | GI50 (MDA-MB-231 breast): 7.5 µM | TGI (MDA-MB-231 breast): > 100 µM | GI50 (U251 glioblastoma): 5.66 µM | TGI (U251 glioblastoma): 19.1 µM | GI50 (SN12C renal): 10.4 µM | TGI (SN12C renal): > 100 µM | GI50 (HT29 colon): 35.6 µM | TGI (HT29 colon): > 100 µM | GI50 (K-562 leukemia): 3.57 µM | TGI (K-562 leukemia): 15 µM | GI50 (HOP-92 NSCLC): 6.46 µM | TGI (HOP-92 NSCLC): 42 µM | GI50 (PC-3 prostate): 3.42 µM | TGI (PC-3 prostate): 20.2 µM | GI50 (SK-MEL-2 melanoma): 13.5 µM | TGI (SK-MEL-2 melanoma): 28 µM | GI50 (HS 578T breast): 3.04 µM | TGI (HS 578T breast): 23.4 µM | GI50 (SK-OV-3 ovarian): 6.01 µM | TGI (SK-OV-3 ovarian): 45.2 µM | GI50 (SF-539 CNS): 8.81 µM | TGI (SF-539 CNS): 27.2 µM | GI50 (A549 NSCLC): 4.89 µM | TGI (A549 NSCLC): 70.7 µM | GI50 (OVCAR-8 ovarian): 4.99 µM | TGI (OVCAR-8 ovarian): 60.5 µM | GI50 (IGROV1 ovarian): 9.94 µM | TGI (IGROV1 ovarian): 39.6 µM | GI50 (SNB-75 CNS): 6.35 µM | TGI (SNB-75 CNS): 49 µM | GI50 (MCF7 breast): 3.16 µM | TGI (MCF7 breast): 23.1 µM | GI50 (HCC-2998 colon): 5.31 µM | TGI (HCC-2998 colon): 20.5 µM | GI50 (MDA-MB-435 melanoma): 7.55 µM | TGI (MDA-MB-435 melanoma): > 100 µM | GI50 (EKVX NSCLC): 3.55 µM | TGI (EKVX NSCLC): 20 µM | GI50 (CAKI-1 renal): 3.95 µM | TGI (CAKI-1 renal): 22.2 µM | GI50 (RPMI-8226 leukemia): 1.8 µM | TGI (RPMI-8226 leukemia): 4.17 µM | GI50 (MOLT-4 leukemia): 1.67 µM | TGI (MOLT-4 leukemia): 3.06 µM | GI50 (MDA-MB-468 breast): 2.89 µM | TGI (MDA-MB-468 breast): 8.38 µM | GI50 (SK-MEL-28 melanoma): 4.79 µM | TGI (SK-MEL-28 melanoma): > 100 µM | GI50 (KM12 colon): 4.9 µM | TGI (KM12 colon): 24.6 µM | GI50 (NCI/ADR-RES ovarian): 3.46 µM | TGI (NCI/ADR-RES ovarian): 26.7 µM | GI50 (NCI-H460 NSCLC): 6.22 µM | TGI (NCI-H460 NSCLC): 19.4 µM | GI50 (MALME-3M melanoma): 4.41 µM | TGI (MALME-3M melanoma): 29.9 µM | GI50 (SW-620 colon): 7.08 µM | TGI (SW-620 colon): 40.7 µM | GI50 (RXF 393 renal): 2.45 µM | TGI (RXF 393 renal): 7.68 µM | GI50 (SF-268 CNS): 11.2 µM | TGI (SF-268 CNS): 70 µM | GI50 (TK-10 renal): 3.69 µM | TGI (TK-10 renal): 20.1 µM | GI50 (OVCAR-3 ovarian): 4.55 µM | TGI (OVCAR-3 ovarian): 15.8 µM | GI50 (UACC-257 melanoma): 6 µM | TGI (UACC-257 melanoma): 25.4 µM | GI50 ([…]-0 renal): 8.07 µM | TGI (786-0 renal): 24.3 µM | GI50 (NCI-H23 lung): 4.5 µM | TGI (NCI-H23 lung): 35 µM | GI50 (CCRF-CEM leukemia): 3.05 µM | TGI (CCRF-CEM leukemia): 8.14 µM
